Laboratory results as given in PubChem BioAssay (NCI).
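These data come from cells grown in 96-well plates and exposed to compound for 48 hours at five concentrations. At the TGI there is no net growth.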

Legend:
Test in all cases: DTP human tumour cell line panel, 48 h
IGROV1 ovarian = system: IGROV1 ovarian
EKVX NSCLC = system: EKVX NSCLC
SR leukemia = system: SR leukemia
ACHN renal = system: ACHN renal
NCI-H460 lung = system: NCI-H460 lung
UACC-62 melanoma = system: UACC-62 melanoma
MDA-MB-231 breast = system: MDA-MB-231 breast
T-47D breast = system: T-47D breast
SK-MEL-28 melanoma = system: SK-MEL-28 melanoma
RXF 393 renal = system: RXF 393 renal
SF-295 CNS = system: SF-295 CNS
NCI-H23 lung = system: NCI-H23 lung
HCT-116 colon = system: HCT-116 colon
HOP-62 NSCLC = system: HOP-62 NSCLC
M14 melanoma = system: M14 melanoma
A549 NSCLC = system: A549 NSCLC
OVCAR-8 ovarian = system: OVCAR-8 ovarian
CAKI-1 renal = system: CAKI-1 renal
HCT-15 colon = system: HCT-15 colon
PC-3 prostate = system: PC-3 prostate
LOX IMVI melanoma = system: LOX IMVI melanoma
MALME-3M melanoma = system: MALME-3M melanoma
MDA-MB-435 = system: MDA-MB-435
TK-10 renal = system: TK-10 renal
HS 578T breast = system: HS 578T breast
HT29 colon = system: HT29 colon
786-0 renal = system: 786-0 renal
UO-31 renal = system: UO-31 renal
MDA-N = system: MDA-N
SF-268 CNS = system: SF-268 CNS
SN12C renal = system: SN12C renal
OVCAR-3 ovarian = system: OVCAR-3 ovarian
SK-MEL-5 melanoma = system: SK-MEL-5 melanoma
HL-60(TB) leukemia = system: HL-60(TB) leukemia
U251 CNS = system: U251 CNS
NCI-H226 lung = system: NCI-H226 lung
KM12 colon = system: KM12 colon
UACC-257 melanoma = system: UACC-257 melanoma
SK-MEL-2 melanoma = system: SK-MEL-2 melanoma
HOP-92 NSCLC = system: HOP-92 NSCLC
NCI/ADR-RES ovarian = system: NCI/ADR-RES ovarian
OVCAR-4 ovarian = system: OVCAR-4 ovarian
K-562 leukemia = system: K-562 leukemia
SNB-19 CNS = system: SNB-19 CNS
A498 renal = system: A498 renal
OVCAR-5 ovarian = system: OVCAR-5 ovarian
BT-549 breast = system: BT-549 breast
MOLT-4 leukemia = system: MOLT-4 leukemia
NCI-H522 lung = system: NCI-H522 lung
SW-620 colon = system: SW-620 colon
DU-145 prostate = system: DU-145 prostate
RPMI-8226 leukemia = system: RPMI-8226 leukemia
SNB-75 CNS = system: SNB-75 CNS
SK-OV-3 ovarian = system: SK-OV-3 ovarian
COLO 205 colon = system: COLO 205 colon
CCRF-CEM leukemia = system: CCRF-CEM leukemia

**Q.** For `c1ccc2c(c1)nnn2CN1CCOCC1`, which TGI (IGROV1 ovarian) is on record?
**A.** Its TGI is over 100 µM.

**Q.** What about the TGI (EKVX NSCLC) of the same molecule?
**A.** Its TGI is over 100 µM.

**Q.** What about the TGI (SR leukemia) of the same molecule?
**A.** The TGI was 54.8 µM.

**Q.** And the TGI (ACHN renal)?
**A.** The TGI was over 100 µM.

**Q.** And the TGI (NCI-H460 lung)?
**A.** The TGI was over 100 µM.

**Q.** And the TGI (UACC-62 melanoma)?
**A.** The TGI was over 100 µM.

**Q.** What about the TGI (MDA-MB-231 breast) of the same molecule?
**A.** The TGI was over 100 µM.

**Q.** What about the TGI (T-47D breast) of the same molecule?
**A.** The TGI was over 100 µM.

**Q.** And the TGI (SK-MEL-28 melanoma)?
**A.** The TGI was over 100 µM.

**Q.** And the TGI (RXF 393 renal)?
**A.** Its TGI is over 100 µM.

**Q.** And the TGI (SF-295 CNS)?
**A.** Its TGI is over 100 µM.

**Q.** And the TGI (NCI-H23 lung)?
**A.** Its TGI is over 100 µM.

**Q.** What about the TGI (HCT-116 colon) of the same molecule?
**A.** The TGI was over 100 µM.

**Q.** What about the TGI (HOP-62 NSCLC) of the same molecule?
**A.** The TGI was over 100 µM.

**Q.** And the TGI (M14 melanoma)?
**A.** The TGI was over 100 µM.

**Q.** What about the TGI (A549 NSCLC) of the same molecule?
**A.** The TGI was over 100 µM.

**Q.** What about the TGI (OVCAR-8 ovarian) of the same molecule?
**A.** Its TGI is over 100 µM.

**Q.** And the TGI (CAKI-1 renal)?
**A.** The TGI was over 100 µM.

**Q.** What about the TGI (HCT-15 colon) of the same molecule?
**A.** Its TGI is over 100 µM.

**Q.** What about the TGI (PC-3 prostate) of the same molecule?
**A.** Its TGI is over 100 µM.

**Q.** What about the TGI (LOX IMVI melanoma) of the same molecule?
**A.** The TGI was over 100 µM.

**Q.** And the TGI (MALME-3M melanoma)?
**A.** Its TGI is over 100 µM.

**Q.** And the TGI (MDA-MB-435)?
**A.** Its TGI is over 100 µM.

**Q.** And the TGI (TK-10 renal)?
**A.** Its TGI is over 100 µM.

**Q.** What about the TGI (HS 578T breast) of the same molecule?
**A.** Its TGI is over 100 µM.

**Q.** What about the TGI (HT29 colon) of the same molecule?
**A.** Its TGI is over 100 µM.

**Q.** And the TGI (786-0 renal)?
**A.** Its TGI is over 100 µM.

**Q.** And the TGI (UO-31 renal)?
**A.** Its TGI is over 100 µM.

**Q.** What about the TGI (MDA-N) of the same molecule?
**A.** The TGI was over 100 µM.

**Q.** And the TGI (SF-268 CNS)?
**A.** Its TGI is over 100 µM.

**Q.** What about the TGI (SN12C renal) of the same molecule?
**A.** The TGI was over 100 µM.

**Q.** What about the TGI (OVCAR-3 ovarian) of the same molecule?
**A.** Its TGI is 93.1 µM.

**Q.** What about the TGI (SK-MEL-5 melanoma) of the same molecule?
**A.** Its TGI is over 100 µM.

**Q.** And the TGI (HL-60(TB) leukemia)?
**A.** The TGI was 63.6 µM.

**Q.** What about the TGI (U251 CNS) of the same molecule?
**A.** The TGI was over 100 µM.

**Q.** And the TGI (NCI-H226 lung)?
**A.** Its TGI is over 100 µM.

**Q.** And the TGI (KM12 colon)?
**A.** Its TGI is over 100 µM.

**Q.** What about the TGI (UACC-257 melanoma) of the same molecule?
**A.** Its TGI is over 100 µM.

**Q.** What about the TGI (SK-MEL-2 melanoma) of the same molecule?
**A.** Its TGI is over 100 µM.

**Q.** And the TGI (HOP-92 NSCLC)?
**A.** The TGI was over 100 µM.

**Q.** What about the TGI (NCI/ADR-RES ovarian) of the same molecule?
**A.** Its TGI is over 100 µM.

**Q.** What about the TGI (OVCAR-4 ovarian) of the same molecule?
**A.** The TGI was over 100 µM.

**Q.** What about the TGI (K-562 leukemia) of the same molecule?
**A.** The TGI was over 100 µM.

**Q.** What about the TGI (SNB-19 CNS) of the same molecule?
**A.** Its TGI is over 100 µM.

**Q.** What about the TGI (A498 renal) of the same molecule?
**A.** Its TGI is over 100 µM.

**Q.** And the TGI (OVCAR-5 ovarian)?
**A.** Its TGI is over 100 µM.

**Q.** What about the TGI (BT-549 breast) of the same molecule?
**A.** Its TGI is over 100 µM.

**Q.** What about the TGI (MOLT-4 leukemia) of the same molecule?
**A.** Its TGI is over 100 µM.

**Q.** What about the TGI (NCI-H522 lung) of the same molecule?
**A.** The TGI was over 100 µM.

**Q.** What about the TGI (SW-620 colon) of the same molecule?
**A.** Its TGI is over 100 µM.

**Q.** What does the source list for `CC(C)(C)/C(O)=C\c1nc2ccc(C(F)(F)F)cc2[nH]c1=O`?
**A.** TGI (IGROV1 ovarian): > 100 µM; TGI (DU-145 prostate): > 100 µM; TGI (EKVX NSCLC): > 100 µM; TGI (SR leukemia): > 100 µM; TGI (ACHN renal): > 100 µM; TGI (UACC-62 melanoma): > 100 µM; TGI (MDA-MB-231 breast): > 100 µM; TGI (T-47D breast): > 100 µM; TGI (SK-MEL-28 melanoma): > 100 µM; TGI (RXF 393 renal): > 100 µM; TGI (SF-295 CNS): > 100 µM; TGI (NCI-H23 lung): > 100 µM; TGI (HCT-116 colon): > 100 µM; TGI (HOP-62 NSCLC): > 100 µM; TGI (M14 melanoma): > 100 µM; TGI (A549 NSCLC): > 100 µM; TGI (OVCAR-8 ovarian): > 100 µM; TGI (RPMI-8226 leukemia): > 100 µM; TGI (CAKI-1 renal): > 100 µM; TGI (HCT-15 colon): > 100 µM; TGI (PC-3 prostate): > 100 µM; TGI (LOX IMVI melanoma): > 100 µM; TGI (MALME-3M melanoma): > 100 µM; TGI (MDA-MB-435): > 100 µM; TGI (TK-10 renal): > 100 µM; TGI (HS 578T breast): > 100 µM; TGI (HT29 colon): > 100 µM; TGI (786-0 renal): > 100 µM; TGI (SNB-75 CNS): > 100 µM; TGI (UO-31 renal): > 100 µM; TGI (MDA-N): > 100 µM; TGI (SF-268 CNS): > 100 µM; TGI (SN12C renal): > 100 µM; TGI (OVCAR-3 ovarian): > 100 µM; TGI (SK-MEL-5 melanoma): > 100 µM; TGI (U251 CNS): > 100 µM; TGI (NCI-H226 lung): > 100 µM; TGI (KM12 colon): > 100 µM; TGI (UACC-257 melanoma): > 100 µM; TGI (SK-OV-3 ovarian): > 100 µM; TGI (SK-MEL-2 melanoma): > 100 µM; TGI (HOP-92 NSCLC): > 100 µM; TGI (NCI/ADR-RES ovarian): > 100 µM; TGI (OVCAR-4 ovarian): > 100 µM; TGI (K-562 leukemia): > 100 µM; TGI (SNB-19 CNS): > 100 µM; TGI (A498 renal): > 100 µM; TGI (OVCAR-5 ovarian): > 100 µM; TGI (COLO 205 colon): > 100 µM; TGI (BT-549 breast): > 100 µM; TGI (MOLT-4 leukemia): > 100 µM; TGI (NCI-H522 lung): > 100 µM; TGI (CCRF-CEM leukemia): > 100 µM; TGI (SW-620 colon): > 100 µM
